In the supplement of paper PMC10307832 one finds relative viability data, which are given here for 13 cell lines.

Common to all, as to test: relative viability (nuclei count vs DMSO), 5 days (fraction); higher = more cells survive
Compound in test [1]: C#Cc1cccc(Nc2ncnc3cc(OCCOC)c(OCCOC)cc23)c1 [Erlotinib] + Nc1nc2[nH]cc(CCc3ccc(C(=O)N[C@@H](CCC(=O)O)C(=O)O)cc3)c2c(=O)[nH]1 [Pemetrexed] (partner 0.2 µM)
The procedure, abridged: (§1)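 The day after seeding in 1536-well plates, lung cancer cell lines were treated by pin tool with a single drug, or with a fixed anchor-drug dose together with five library-drug doses (not always all listed) in √10 steps. After 5 days, a combined fix-and-stain solution (final 0.05% Triton X-100, 1% formaldehyde, 1 ug/ml Hoechst) was added. Nuclei counted on 4× images gave relative viability as treated counts over vehicle counts, reported as the median of duplicate plates.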

Compound in test [2]: O=C(Nc1c[nH]nc1-c1nc2ccc(CN3CCOCC3)cc2[nH]1)NC1CC1 [AT9283] + Cc1cc(Nc2cc(N3CCN(C)CC3)nc(Sc3ccc(NC(=O)C4CC4)cc3)n2)n[nH]1 [Tozasertib] (partner 0.1 µM)
In short, it runs like this: as §1

Compound in test [3]: O=C(Nc1c[nH]nc1-c1nc2ccc(CN3CCOCC3)cc2[nH]1)NC1CC1 [AT9283] + Nc1nc2[nH]cc(CCc3ccc(C(=O)N[C@@H](CCC(=O)O)C(=O)O)cc3)c2c(=O)[nH]1 [Pemetrexed] (partner 0.2 µM)
The procedure, abridged: as §1

Compound in test [4]: O=C(Nc1c[nH]nc1-c1nc2ccc(CN3CCOCC3)cc2[nH]1)NC1CC1 [AT9283] + O=C(CCCCCCC(=O)Nc1ccccc1)NO [Vorinostat] (partner 1 µM)
In short, it runs like this: as §1

Compound in test [5]: C#Cc1cccc(Nc2ncnc3cc(OCCOC)c(OCCOC)cc23)c1 [Erlotinib] + COc1cc2c(Oc3ccc(NC(=O)C4(C(=O)Nc5ccc(F)cc5)CC4)cc3F)ccnc2cc1OCCCN1CCOCC1 [Foretinib] (partner 0.25 µM)
The procedure, abridged:
as §1

On to NCI-H1648, for which the relative viability in test [1] (first compound 0.02 µM) is 0.759; in test [1] (first compound 0.2 µM), 0.707; in test [1] (first compound 0.6325 µM), 0.629; in test [1] (first compound 2 µM), 0.66; in test [2] (first compound 0.003 µM), 0.456; in test [2] (first compound 0.03 µM) it was 0.343. For the same cell line, the relative viability in test [2] (first compound 0.09487 µM) is 0.329; in test [2] (first compound 0.3 µM), 0.258; in test [3] (first compound 0.003 µM), 0.579; in test [3] (first compound 0.03 µM) it was 0.553; in test [3] (first compound 0.09487 µM) it was 0.493; in test [3] (first compound 0.3 µM), 0.386. Moreover, the relative viability in test [4] (first compound 0.003 µM) is 0.378; in test [4] (first compound 0.03 µM) it was 0.468; in test [4] (first compound 0.09487 µM) it was 0.325; in test [4] (first compound 0.3 µM), 0.308.
For the cell line EPLC-272H, the relative viability came to 0.385 in test [1] (first compound 0.02 µM); 0.329 in test [1] (first compound 0.2 µM); 0.29 in test [1] (first compound 0.6325 µM); 0.371 in test [1] (first compound 2 µM); 0.306 in test [2] (first compound 0.003 µM); 0.192 in test [2] (first compound 0.03 µM). The relative viability was found to be 0.203 in test [2] (first compound 0.09487 µM); 0.159 in test [2] (first compound 0.3 µM); 0.358 in test [3] (first compound 0.003 µM); 0.212 in test [3] (first compound 0.03 µM); 0.177 in test [3] (first compound 0.09487 µM); 0.138 in test [3] (first compound 0.3 µM). For the same cell line, the relative viability in test [4] (first compound 0.003 µM) is 0.467; in test [4] (first compound 0.03 µM), 0.167; in test [4] (first compound 0.09487 µM) it was 0.206; in test [4] (first compound 0.3 µM), 0.139; in test [5] (first compound 0.02 µM), 0.821; in test [5] (first compound 0.2 µM), 0.477. In addition, the relative viability in test [5] (first compound 0.6325 µM) was found to be 0.534; in test [5] (first compound 2 µM) it was 0.342.
As for NCI-H647, the relative viability in test [1] (first compound 0.02 µM) was 0.173; in test [1] (first compound 0.2 µM) it was 0.187; in test [1] (first compound 0.6325 µM), 0.19; in test [1] (first compound 2 µM) it was 0.151; in test [2] (first compound 0.003 µM), 0.307; in test [2] (first compound 0.03 µM), 0.14. The relative viability worked out at 0.117 in test [2] (first compound 0.09487 µM); 0.118 in test [2] (first compound 0.3 µM); 0.168 in test [3] (first compound 0.003 µM); 0.127 in test [3] (first compound 0.03 µM); 0.0669 in test [3] (first compound 0.09487 µM); 0.0634 in test [3] (first compound 0.3 µM). Further, the relative viability came out at 0.466 in test [4] (first compound 0.003 µM); 0.323 in test [4] (first compound 0.03 µM); 0.126 in test [4] (first compound 0.09487 µM); 0.12 in test [4] (first compound 0.3 µM); 1.13 in test [5] (first compound 0.02 µM); 1.04 in test [5] (first compound 0.2 µM). Moreover, the relative viability in test [5] (first compound 0.6325 µM) was determined as 1.32; in test [5] (first compound 2 µM), 1.04.
As for NCI-H661, the relative viability in test [1] (first compound 0.02 µM) stood at 0.925; in test [1] (first compound 0.2 µM) it was 0.841; in test [1] (first compound 0.6325 µM) it was 0.838; in test [1] (first compound 2 µM), 0.828; in test [2] (first compound 0.003 µM), 0.347; in test [2] (first compound 0.03 µM) it was 0.344. Also, the relative viability in test [2] (first compound 0.09487 µM) was 0.389; in test [2] (first compound 0.3 µM), 0.37; in test [3] (first compound 0.003 µM), 0.932; in test [3] (first compound 0.03 µM) it was 0.449; in test [3] (first compound 0.09487 µM) it was 0.405; in test [3] (first compound 0.3 µM), 0.385. Besides, the relative viability in test [4] (first compound 0.003 µM) is 0.858; in test [4] (first compound 0.03 µM) it was 0.359; in test [4] (first compound 0.09487 µM) it was 0.316; in test [4] (first compound 0.3 µM), 0.384; in test [5] (first compound 0.02 µM) it was 1; in test [5] (first compound 0.2 µM), 0.921. Further, the relative viability in test [5] (first compound 0.6325 µM) was 1.1; in test [5] (first compound 2 µM), 0.705.
As to NCI-H727, the relative viability in test [2] (first compound 0.003 µM) was found to be 0.589; in test [2] (first compound 0.03 µM), 0.567; in test [2] (first compound 0.09487 µM), 0.457; in test [2] (first compound 0.3 µM) it was 0.444; in test [4] (first compound 0.003 µM), 1.07; in test [4] (first compound 0.03 µM), 0.866. Besides, the relative viability in test [4] (first compound 0.09487 µM) came to 0.815; in test [4] (first compound 0.3 µM), 0.499; in test [5] (first compound 0.02 µM) it was 0.847; in test [5] (first compound 0.2 µM) it was 0.75; in test [5] (first compound 0.6325 µM), 0.813; in test [5] (first compound 2 µM), 0.726.
Turning to A549, the relative viability in test [5] (first compound 0.02 µM) stood at 0.795; in test [5] (first compound 0.2 µM) it was 0.947; in test [5] (first compound 0.6325 µM), 0.902; in test [5] (first compound 2 µM), 0.786.
On to NCI-H1563, for which the relative viability in test [1] (first compound 0.02 µM) was determined as 0.659; in test [1] (first compound 0.2 µM), 0.83; in test [1] (first compound 0.6325 µM), 0.92; in test [3] (first compound 0.003 µM), 0.751; in test [3] (first compound 0.03 µM), 0.66; in test [3] (first compound 0.09487 µM), 0.559. Further, the relative viability was found to be 0.513 in test [3] (first compound 0.3 µM); 0.979 in test [5] (first compound 0.02 µM); 0.836 in test [5] (first compound 0.2 µM); 0.955 in test [5] (first compound 0.6325 µM); 0.951 in test [5] (first compound 2 µM).
With IA-LM, the relative viability came to 0.927 in test [4] (first compound 0.003 µM); 0.624 in test [4] (first compound 0.03 µM); 0.144 in test [4] (first compound 0.09487 µM); 0.111 in test [4] (first compound 0.3 µM); 1.31 in test [5] (first compound 0.02 µM); 1.12 in test [5] (first compound 0.2 µM). The relative viability in test [5] (first compound 0.6325 µM) came out at 1.19; in test [5] (first compound 2 µM), 1.03.
Turning to EBC-1, the relative viability in test [5] (first compound 0.02 µM) was determined as 0.0955; in test [5] (first compound 0.2 µM), 0.0898; in test [5] (first compound 0.6325 µM), 0.104; in test [5] (first compound 2 µM) it was 0.0948.
The like results for NCI-H1703 were, in that order, 0.33, 0.419, 0.343 and 0.357.
As to NCI-H1792, the relative viability was 1.05 in test [1] (first compound 0.02 µM); 0.629 in test [1] (first compound 0.2 µM); 1.02 in test [1] (first compound 0.6325 µM); 0.51 in test [1] (first compound 2 µM); 0.783 in test [3] (first compound 0.003 µM); 0.945 in test [3] (first compound 0.03 µM). The relative viability was 0.805 in test [3] (first compound 0.09487 µM) and 0.167 in test [3] (first compound 0.3 µM).
As to HCC-44, the relative viability in test [1] (first compound 0.02 µM) worked out at 0.682; in test [1] (first compound 0.2 µM), 0.724; in test [1] (first compound 0.6325 µM), 0.662; in test [1] (first compound 2 µM), 0.639; in test [2] (first compound 0.003 µM) it was 0.94; in test [2] (first compound 0.03 µM), 0.621. Also, the relative viability in test [2] (first compound 0.09487 µM) came to 0.294; in test [2] (first compound 0.3 µM), 0.321; in test [3] (first compound 0.003 µM), 0.629; in test [3] (first compound 0.03 µM), 0.666; in test [3] (first compound 0.09487 µM) it was 0.564; in test [3] (first compound 0.3 µM) it was 0.694. The relative viability in test [4] (first compound 0.003 µM) was determined as 1.07; in test [4] (first compound 0.03 µM) it was 1.05; in test [4] (first compound 0.09487 µM), 0.571; in test [4] (first compound 0.3 µM), 0.567.
Turning to Calu-6, the relative viability came to 0.94 in test [5] (first compound 0.02 µM), 0.838 in test [5] (first compound 0.2 µM), 0.886 in test [5] (first compound 0.6325 µM) and 0.803 in test [5] (first compound 2 µM).
